In ChEMBL document CHEMBL3817770, “Design and synthesis of 5-aminolaevulinic acid/3-hydroxypyridinone conjugates for photodynamic therapy: enhancement of protoporphyrin IX production and photo-toxicity in tumor cells” (Medchemcomm, 2016):
Calls of active or inactive are those of the source. The rule behind the calls is not given here.

Key:
KB [1] = assay: Increase in protoporphyrin 9 levels in human KB cells at 200 uM after 3 to 24 hrs by fluorescence spectrometer plate reader method; format: functional, cell-based
LNCaP [2] = assay: Increase in protoporphyrin 9 levels in human LNCAP cells at 100 uM after 24 hrs by fluorescence spectrometer plate reader method relative to ALA; format: functional
LNCaP [3] = assay: Phototoxicity in human LNCAP cells assessed as cell survival at 100 uM incubated for 4 hrs followed by irradiation with blue light for 5 mins by MTT assay; format: functional
MCF7 [4] = assay: Phototoxicity in human MCF7 cells assessed as cell survival at 100 uM incubated for 4 hrs followed by irradiation with blue light for 5 mins by MTT assay; format: functional
[5] = Phototoxicity in human BPH1 cells assessed as cell survival at 200 uM incubated for 4 hrs followed by irradiation with blue light for 5 mins by MTT assay; format: cell-based, BPH-1; details: bph-1, 4 h, 200 µM
LNCaP [6] = assay: Dark toxicity in human LNCAP cells at 200 uM after 4 hrs by MTT assay; format: cell-based
A549 [7] = assay: Dark toxicity in human A549 cells at 200 uM after 4 hrs by MTT assay; format: cell-based; details: a549, 4 h
[8] = Dark toxicity in human BPH1 cells at 200 uM after 4 hrs by MTT assay; format: cell-based; details: bph-1, 4 h
KB [9] = assay: Increase in protoporphyrin 9 levels in human KB cells at 100 uM after 24 hrs by fluorescence spectrometer plate reader method relative to ALA; format: functional
A549 [10] = assay: Phototoxicity in human A549 cells assessed as cell survival at 100 uM incubated for 4 hrs followed by irradiation with blue light for 5 mins by MTT assay; format: functional
A549 [11] = assay: Increase in protoporphyrin 9 levels in human A549 cells at 200 uM after 3 to 24 hrs by fluorescence spectrometer plate reader method; format: functional, cell-based
A549 [12] = assay: Phototoxicity in human A549 cells assessed as cell survival at 200 uM incubated for 4 hrs followed by irradiation with blue light for 5 mins by MTT assay; format: functional
MCF7 [13] = assay: Dark toxicity in human MCF7 cells at 200 uM after 4 hrs by MTT assay; format: cell-based; details: mcf7, 4 h
A549 [14] = assay: Increase in protoporphyrin 9 levels in human A549 cells at 100 uM after 24 hrs by fluorescence spectrometer plate reader method relative to ALA; format: functional
LNCaP [15] = assay: Phototoxicity in human LNCAP cells assessed as cell survival at 200 uM incubated for 4 hrs followed by irradiation with blue light for 5 mins by MTT assay; format: functional
[16] = Increase in protoporphyrin 9 levels in human BPH1 cells at 200 uM after 3 to 24 hrs by fluorescence spectrometer plate reader method; format: ADME, cell-based; details: bph-1, 200 µM
LNCaP [17] = assay: Increase in protoporphyrin 9 levels in human LNCAP cells at 200 uM after 3 to 24 hrs by fluorescence spectrometer plate reader method; format: functional, cell-based
[18] = Increase in protoporphyrin 9 levels in human BPH1 cells at 100 uM after 24 hrs by fluorescence spectrometer plate reader method relative to ALA; format: ADME, cell-based; details: bph-1, 24 h
KB [19] = assay: Phototoxicity in human KB cells assessed as cell survival at 200 uM incubated for 4 hrs followed by irradiation with blue light for 5 mins by MTT assay; format: functional

SMILES	Activity (KB [1])	Activity (LNCaP [2])	Activity (LNCaP [3])	Activity (MCF7 [4])	Activity [5]	Activity (LNCaP [6])	Activity (A549 [7])	Activity [8]	Activity (KB [9])	Activity (A549 [10])	Activity (A549 [11])	Activity (A549 [12])	Activity (MCF7 [13])	Activity (A549 [14])	Activity (LNCaP [15])	Activity [16]	Activity (LNCaP [17])	Activity [18]	Activity (KB [19])
CCn1ccc(=O)c(O)c1C(=O)N[C@@H](CC(C)C)C(=O)NCC(=O)CCC(=O)OC	inactive	inactive	inactive	inactive	Non-toxic	Non-toxic	Non-toxic	Non-toxic	inactive	inactive	inactive	inactive	Non-toxic	inactive	inactive	Non-toxic	inactive	Non-toxic	inactive
CCCCCCn1ccc(=O)c(O)c1C(=O)N[C@@H](Cc1ccccc1)C(=O)NCC(=O)CCC(=O)OC	inactive	inactive	inactive	inactive	Non-toxic	Non-toxic	Non-toxic	Non-toxic	inactive	inactive	inactive	inactive	Non-toxic	inactive	inactive	Non-toxic	inactive	Non-toxic	inactive
CCCCn1ccc(=O)c(O)c1C(=O)N[C@@H](CC(C)C)C(=O)NCC(=O)CCC(=O)OC	inactive	inactive	inactive	inactive	Non-toxic	Non-toxic	Non-toxic	Non-toxic	inactive	inactive	inactive	inactive	Non-toxic	inactive	inactive	Non-toxic	inactive	Non-toxic	inactive
CCCCn1ccc(=O)c(O)c1C(=O)N[C@@H](Cc1ccccc1)C(=O)NCC(=O)CCC(=O)OC	inactive	inactive	inactive	inactive	Non-toxic	Non-toxic	Non-toxic	Non-toxic	inactive	inactive	inactive	inactive	Non-toxic	inactive	inactive	Non-toxic	inactive	Non-toxic	inactive
CCCCCCn1ccc(=O)c(O)c1C(=O)N[C@@H](CC(C)C)C(=O)NCC(=O)CCC(=O)OC	inactive	inactive	inactive	inactive	Non-toxic	Non-toxic	Non-toxic	Non-toxic	inactive	inactive	inactive	inactive	Non-toxic	inactive	inactive	Non-toxic	inactive	Non-toxic	inactive
CCn1ccc(=O)c(O)c1C(=O)N[C@@H](Cc1ccccc1)C(=O)NCC(=O)CCC(=O)OC	inactive	inactive	inactive	inactive	Non-toxic	Non-toxic	Non-toxic	Non-toxic	inactive	inactive	inactive	inactive	Non-toxic	inactive	inactive	Non-toxic	inactive	Non-toxic	inactive
COCCn1ccc(=O)c(O)c1C(=O)N[C@@H](CC(C)C)C(=O)NCC(=O)CCC(=O)OC	inactive	inactive	inactive	inactive	Non-toxic	Non-toxic	Non-toxic	Non-toxic	inactive	inactive	inactive	inactive	Non-toxic	inactive	inactive	Non-toxic	inactive	Non-toxic	inactive
COCCn1ccc(=O)c(O)c1C(=O)N[C@@H](Cc1ccccc1)C(=O)NCC(=O)CCC(=O)OC	inactive	inactive	inactive	inactive	Non-toxic	Non-toxic	Non-toxic	Non-toxic	inactive	inactive	inactive	inactive	Non-toxic	inactive	inactive	Non-toxic	inactive	Non-toxic	inactive
COC(=O)CCC(=O)CNC(=O)[C@H](CC(C)C)NC(=O)c1c(O)c(=O)ccn1C	inactive	inactive	inactive	inactive	Non-toxic	Non-toxic	Non-toxic	Non-toxic	inactive	inactive	inactive	inactive	Non-toxic	inactive	inactive	Non-toxic	inactive	Non-toxic	inactive
